In brackets after ≈: the same amount, converted by molar mass. Where two headings read alike, the source gives them in different places.
Legend:
L1210 leukemia cells = test: Cytotoxicity for L1210 leukemia cells (stem cell assay, SCA); assay type: cell-based; details: Mus musculus
Protocol: The test was carried out in accordance with the methods described by Hamburger and Salmon, with the modifications described below.
Conditioned medium was replaced by McCoy 5A medium. As a consequence of the high cloning rate of the L1210 leukemia cells in soft agar, the number of tumor cells per plate was reduced to 5×10^2.
The cells were incubated with various concentrations of the test substance at 37° C. for 1 h. The cells were subsequently washed twice with McCoy 5A medium and subsequently plated out in a two-layer agar system as upper layer in accordance with the Hamburger and Salmon method.
Additional parallel experiments were carried out using a continuous incubation time, in which case various concentrations of the test substance were mixed with the upper agar layer before plating out of the cells.
The plates were incubated in an incubator with 5% CO2, 20% O2 and 95% relative humidity for 5-7 days. After this time, colonies with a diameter of 60 μm were counted using an invertoscope.
The results have been reported as the percentage of colonies in treated versus untreated groups. The coefficient of variation for repeat experiments was less than 15%.
The IC50 for continuous and one-hour incubation was determined from the dose-effect plot (Tab. 1).

L1210 cells = test: Proliferation test (MTT reduction), L1210; assay type: cell-based
Protocol: (§1) L1210, A 549 or HT 29 in the exponential growth phase are incubated in a cell density of 5×10^3 cells/ml in RPMI 1640 medium in a 96-well microtest plate with various concentrations of the test substance at 37° C., 5% CO2 and 95% relative humidity for 72 h. Control experiments contain merely growth medium in place of test substance. Determinations in quadruplicate are made up for each test substance and for the control. After incubation for 65 h, 50 µl of an MTT solution (2.5 mg/ml in phosphate-buffered saline) are added. In the presence of live cells MTT is reduced to a dark-red insoluble formazan dyestuff. This reaction is complete after 7 h (L1210 cells) or after 24 h (A 549, HT 29 cells), and the supernatant medium is carefully aspirated off. The insoluble dyestuff is dissolved by addition of 100 µl of DMSO, and the extinction of the solution produced in this way is subsequently measured at a wavelength of 492 nm for each well in a 340 CC Multiscan Photometer from Flow.
(§2) The ratio of the extinctions with treated and untreated cells yields a dose-effect plot from which the concentration which just kills 50% of the cells (IC50) can be read off. The coefficient of variation for repeat tests is less than 15%.

A 549 cells = test: Proliferation test (MTT reduction), A549; assay type: cell-based
Protocol: as §1, §2

HT 29 cells = test: Proliferation test (MTT reduction), HT29; assay type: cell-based; details: Homo sapiens, read-out: IC50 MTT assay HT29
Protocol: as §1, §2

patients = details: cited from earlier work
[1] = L1210, 1 h incubation, read-out: IC50 SCA 1 h
[2] = Mus musculus, L1210, 72 h; read-out: IC50 MTT assay L1210
[3] = Homo sapiens, A549, 72 h; read-out: IC50 MTT assay A549
[4] = L1210, 1 h, read-out: IC50 SCA 1 h

| Compound | IC50 (L1210 leukemia cells; [1]) | IC50 (L1210 cells; [2]) | IC50 (A 549 cells; [3]) | IC50 (HT 29 cells; HT-29, HT29, 72 h) | also measured |
| --- | --- | --- | --- | --- | --- |
| CC[C@@]1(O)C[C@H](O[C@H]2C[C@H](N)[C@H](N)[C@H](C)O2)c2c(O)c3c(c(O)c2[C@H]1O)C(=O)c1cccc(O)c1C3=O [compound 16, 7-O-(3',4'-Diamino-2',3',4',6'-tetradeoxy-alpha-L-lyxohexo-pyranosyl)-β-rhodomycinone] | 0.069 µg/mL (≈ 0.134 µM) | 0.01 µg/mL (≈ 0.0194 µM) | 0.04 µg/mL (≈ 0.0777 µM) | 0.069 µg/mL (≈ 0.134 µM) | – |
| CC[C@@]1(O)C[C@H](O[C@H]2C[C@H](NC(=O)C(F)(F)F)[C@H](NC(=O)C(F)(F)F)[C@H](C)O2)c2c(O)c3c(c(O)c2[C@H]1O)C(=O)c1cccc(O)c1C3=O [compound 15, 7-O-(3',4'-bis-(trifluoroacetamido)-2',3',4',6'-tetradeoxy-alpha-L-lyxohexopyranosyl)-β-rhodomycinone] | 0.43 µg/mL (≈ 0.609 µM) | 0.037 µg/mL (≈ 0.0524 µM) | 0.059 µg/mL (≈ 0.0835 µM) | 0.1 µg/mL (≈ 0.142 µM) | – |
| CC[C@@]1(O)C[C@H](O[C@H]2C[C@H](NC(=O)C(F)(F)F)[C@@H](N=[N+]=[N-])[C@H](C)O2)c2c(O)c3c(c(O)c2[C@H]1O)C(=O)c1cccc(O)c1C3=O [compound 17, 7-O-(4'-Azido-2',3',4',6'-tetradeoxy-3'-trifluoroacetamido-alpha-L-arabinohexopyranosyl)-β-rhodomycinone] | – | – | – | – | IC50 (L1210 leukemia cells; [4]): 1.4 µg/mL (≈ 2.2 µM); IC50 (L1210 cells; Mus musculus, L1210, 72 h, read-out: IC50 MTT assay L1210): 0.33 µg/mL (≈ 0.518 µM); IC50 (A 549 cells; Homo sapiens, A549, 72 h, read-out: IC50 MTT assay A549): 0.52 µg/mL (≈ 0.817 µM); IC50 (HT 29 cells; HT-29, 72 h): 0.34 µg/mL (≈ 0.534 µM) |
| CC[C@@]1(O)C[C@H](O[C@H]2C[C@H](N)[C@H](N)[C@H](C)O2)c2c(O)c3c(c(O)c2[C@H]1O)C(=O)c1cccc(OC)c1C3=O [compound 10, 4-O-Methyl-7-O-(3',4'-diamino-2',3',4',6'-tetradeoxy-alpha-L-lyxohexopyranosyl)-β-rhodomycinone] | – | 0.039 µg/mL (≈ 0.0738 µM) | 0.095 µg/mL (≈ 0.18 µM) | 0.033 µg/mL (≈ 0.0624 µM) | – |
| COc1cccc2c1C(=O)c1c(O)c3c(c(O)c1C2=O)C[C@@](O)(C(C)=O)C[C@@H]3O[C@H]1C[C@H](N)[C@H](O)[C@H](C)O1 [daunorubicin] | – | – | – | – | side effects of the treatment (patients; in vivo): damage to the circulatory system and symptoms characteristic thereof |
| COc1cccc2c1C(=O)c1c(O)c3c(c(O)c1C2=O)C[C@@](O)(C(=O)CO)C[C@@H]3O[C@H]1C[C@H](N)[C@H](O)[C@H](C)O1 [Adriamycin, reference compound] | – | – | – | – | side effects of the treatment (patients; clinical use, specialist literature): damage to the circulatory system and symptoms characteristic thereof; IC50 (L1210 leukemia cells; [4]): 0.04 µg/mL (≈ 0.0736 µM); IC50 (L1210 leukemia cells; L1210, read-out: IC50 SCA cont.): 0.02 µg/mL (≈ 0.0368 µM) |
| CC[C@@]1(O)C[C@H](O[C@H]2C[C@H](N=[N+]=[N-])[C@H](NC(=O)C(F)(F)F)[C@H](C)O2)c2c(O)c3c(c(O)c2[C@H]1O)C(=O)c1cccc(O)c1C3=O [compound 13, 7-O-(3'-Azido-2',3',4',6'-tetradeoxy-4'-trifluoroacetamido-alpha-L-lyxohexopyranosyl)-β-rhodomycinone] | 0.29 µg/mL (≈ 0.456 µM) | 0.1 µg/mL (≈ 0.157 µM) | 0.1 µg/mL (≈ 0.157 µM) | 0.2 µg/mL (≈ 0.314 µM) | – |
| CC[C@@]1(O)C[C@H](O[C@H]2C[C@H](N)[C@@H](NC(=O)C(F)(F)F)[C@H](C)O2)c2c(O)c3c(c(O)c2[C@H]1O)C(=O)c1cccc(O)c1C3=O [compound 12, 7-O-(3'-Amino-2',3',4',6'-tetradeoxy-4'-trifluoroacetamido-alpha-L-arabinohexopyranosyl)-β-rhodomycinone] | 0.44 µg/mL (≈ 0.721 µM) | 0.03 µg/mL (≈ 0.0491 µM) | 0.027 µg/mL (≈ 0.0442 µM) | 0.022 µg/mL (≈ 0.036 µM) | – |
| CC[C@@]1(O)C[C@H](O[C@H]2C[C@H](O)[C@H](N)[C@H](C)O2)c2c(O)c3c(c(O)c2[C@H]1O)C(=O)c1cccc(OC)c1C3=O [compound 8] | – | 0.043 µg/mL (≈ 0.0812 µM) | 0.14 µg/mL (≈ 0.264 µM) | 0.043 µg/mL (≈ 0.0812 µM) | – |
